{"source": "paper PMC3177041", "about": "(Journal of Cachexia, Sarcopenia and Muscle, 2011)", "system": "male Wistar rats", "test": "chronic mild stress model, 1% sucrose consumption", "type": "in vivo, rat", "conditions": "stressed and control groups, 10 mg/kg once daily", "data": [{"molecule": "CN(C)CCCN1c2ccccc2CCc2ccccc21", "note": "[imipramine]", "values": [{"measurement": "body mass gain in the 5 weeks of treatment vs vehicle-treated controls", "value": "gained less body mass"}]}]}
